Assay results from patent US7674464B2, “Intracellular interleukin-1 receptor antagonists” (The University of Tennessee Research Foundation, priority 2004, dated 2010).
Read-outs that look alike come from different tables or passages of the source.

Key:
PGE2 = test: IL-1β-induced fibroblast PGE2 synthesis, RIA; format: cell-based, human
Method: Confluent fibroblast monolayer cultures were preincubated with IL-1ra peptides for 2 h and then with hrIL-1β for 24 h. PGE2 was quantitated by RIA.
Additionally, since IL-1β stimulates PGE2 synthesis by fibroblasts, the effect of peptides disclosed in Table 5 on the PGE2 production by fibroblasts was examined. Briefly, Maintenance Medium in multi-well plates comprising the fibroblasts that were grown to confluency for 3 days was changed to Maintenance Medium containing 2.5% FCS (450 μl/well). This was followed by addition of IL-1ra peptides or hrsIL-1ra (25 μl aliquots) to culture wells 2 hrs prior to addition of hrIL-1β (100 pg/ml). After an additional 24 h incubation, PGE2 was measured in these culture supernatants. PGE2 was extracted from fibroblast culture supernatants and measured by a previously described radioimmunoassay technique (Ballou et al., 1990; Postlethwaite et al., 1989). It was observed that IL-1ra peptide with SEQ ID NO: 15 inhibited IL-1-induced fibroblast synthesis of PGE2 (FIG. 23). Recombinant IL-1ra (100 ng/ml) inhibited IL-1-induced PGE2 production to a level of 150 pg/ml.

ICAM-1 = test: IL-1β-induced ICAM-1 expression on human dermal fibroblasts; format: cell-based
Method: Confluent fibroblast monolayers were cultured for […] with IL-1ra peptides and then for 24 h with IL-1β. ICAM expression on fibroblast monolayers was then quantitated.
Further, since IL-1 upregulates ICAM-1 expression on a variety of cells including fibroblasts, the ability of the peptides disclosed in Table 5 to inhibit IL-1β induced ICAM-1 expression on human dermal fibroblasts was examined. Briefly, fibroblasts were seeded in wells of flat bottom 96 well tissue culture plates (NUNC, Roskilde, Denmark) (1×10^4 cells […] Maintenance Medium). After 72 h, the culture medium was removed from each well and replaced with 450 μl Maintenance Medium and 25 μl of IL-1ra peptides or hrsIL-1ra (100 ng/ml). After incubation at 37° C. for 2 h in 5% CO2 humidified atmosphere, 25 μl hrIL-1β (100 pg/mL final concentration) was added to wells containing IL-1ra peptides or hrsIL-1ra. Wells with 50 μl PBS served as a negative control. PBS 25 μl+[…] IL-1β (100 pg/ml final concentration) was a positive control. Plates were incubated an additional 24 h, after which medium was removed from each well and the cells were fixed with 100 μl of 3.8% formaldehyde in PBS for 5-7 minutes at room temperature. The cells were rinsed twice with culture medium, and 100 μl of monoclonal mouse anti-ICAM-1 antibody (AMAC, Inc., Westbrook, Me.; diluted 0.2 mg original stock diluted 1:800 in culture medium) was applied to designated wells. The plate was then incubated at 4° C. overnight.
After washing the plate thrice with 300 μl of 0.1% BSA-PBS, 200 μl of secondary antibody, goat anti-mouse IgG antibody-conjugated to horseradish peroxidase (Pierce, Rockford, Ill.) diluted 1:4000 in 1% BSA-PBS, was added to each well and the plate was incubated at room temperature for 2 h. After a final wash with 0.1% BSA-PBS, 100 μl of peroxidase substrate solution (Pierce) containing 2,2′-azino-di[3-ethylbenzthiazoline sulfonate] (Kirkegaard & Perry Laboratories, Inc., Gaithersburg, Md.) was added to each well. This was followed 30-40 minutes later by reading of the optical density (OD) at 405 nm by a Microplate Autoreader (Bio-Tek Instruments, Inc., Winooski, Vt.). The color solution was discarded and the plate was then washed twice with PBS. Finally, the cells were digested with 30 μl of 0.6 M NaOH overnight, and the amount of protein in each well was determined using BCA assay reagents (Pierce). ICAM-1 expression was presented as OD/mg protein. […] The hrsIL-1ra (100 ng/mL) inhibited IL-1β-induced ICAM-1 expression to 6 O.D. units/mg of cellular protein.

type I IL-1R [1] = target: T1, type I IL-1R (Mus musculus, UniProt P13504); parameters: host or cells: EL4.IL-2 murine thymoma cells; conditions: murine thymoma cell line EL4.IL-2; read-out: affinity (Kp) for type I IL-1R; cited from earlier work
T1 sequence (P13504 20-576): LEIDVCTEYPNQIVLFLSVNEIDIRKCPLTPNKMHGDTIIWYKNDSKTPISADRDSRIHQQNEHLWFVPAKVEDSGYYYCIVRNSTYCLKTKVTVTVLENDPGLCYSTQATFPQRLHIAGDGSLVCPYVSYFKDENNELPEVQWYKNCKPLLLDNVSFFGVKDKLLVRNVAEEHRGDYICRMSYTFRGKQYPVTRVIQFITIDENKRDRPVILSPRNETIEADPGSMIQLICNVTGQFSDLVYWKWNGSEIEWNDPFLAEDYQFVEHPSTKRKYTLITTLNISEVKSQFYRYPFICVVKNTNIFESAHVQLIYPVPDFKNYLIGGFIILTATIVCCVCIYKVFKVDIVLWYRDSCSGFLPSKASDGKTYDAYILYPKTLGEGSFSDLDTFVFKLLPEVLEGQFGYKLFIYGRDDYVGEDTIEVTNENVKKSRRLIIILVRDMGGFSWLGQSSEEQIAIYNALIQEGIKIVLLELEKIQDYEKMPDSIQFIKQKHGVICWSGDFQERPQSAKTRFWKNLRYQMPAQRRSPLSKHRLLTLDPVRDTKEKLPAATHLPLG

type I IL-1R [2] = target: T1, type I IL-1R; test: [125I] IL-1beta competitive binding to type I IL-1 receptors on EL4 6.1 cells; parameters: IL-1beta from type I IL-1Rs on the EL46.1 cells; endogenous in cells; host or cells: EL4 6.1 (murine T cell line); species or system murine
Method: IL-1 beta for binding to type I IL-1 receptors on murine cells. EL46.1 cells were incubated at 4° C. in presence of the sodium azide for 2 hr with and without each of the IL-1ra peptides or with soluble human recombinant interleukin 1ra (shrIL-1ra) as a control. Cells were then incubated with [^125I]hrIL-1, transferred to microfuge tubes containing phthalolate oil, centrifuged and free and bound radioactivity determined. Non-specific binding was determined in the presence of 100× excess concentration of cold hrIL-1 beta.
None of the peptides were able to displace [^125I] IL-1beta from type I IL-1Rs on the EL46.1 cells (FIG. 19). Additionally a competitive binding assay was performed in which the IL-1ra peptides were added to the EL4 cells at the same time [^125I] was added. No displacement of [^125I] IL-1 beta was observed from its receptors in the presence of these IL-1ra peptides.

D10.G4.1 T cells = test: lymphocyte mitogenesis assay: IL-1α-stimulated proliferation of D10.G4.1 T cells; format: cell-based, murine; conditions: peptides added 1 hour before IL-1α (10 ng/ml)
Method: An hour prior to the addition of hrIL-1α, the IL-1ra peptides were added to cultures of murine T cell line, D10.G4.1 and ^3H thymidine incorporation was quantitated.
Since sIL-1ra blocks IL-1 stimulation of T cells, the abilities of the IL-1ra peptides of Table 5 to inhibit mitogenesis of murine D10.G4.1 cells in response to IL-1α were assessed by performing lymphocyte mitogenesis assay. Briefly, different concentrations of IL-1ra peptides were added to culture 1 hour prior to addition of IL-1α (10 ng/ml). The results are expressed as mean cpm of quadruplicate determinations corrected for background. The standard error of the mean for each sample tested was 10% or less. None of the peptides disclosed in Table 5 inhibited IL-1α stimulation of proliferation of D10.G4.1 T cells (FIG. 20). Further, the uptake of ^125I IL-1ra peptide with SEQ ID NO: 13 by dermal fibroblasts was investigated. Briefly, the SEQ ID NO: 13 peptide (25 μg in 125 μl 0.125 sodium borate buffer pH 8.5) was labeled with ^125I-Bolton Hunter Reagent (New England Nuclear, Boston, Mass.) according to manufacturer's instructions. The labeled IL-1ra was separated from the free ^125I by passage over a Bio-Gel P-2 (BioRad, Richmond, Calif.) 1 ml column equilibrated and eluted with phosphate buffered saline containing 0.1% gelatin. […]

collagenase (MMP-1) [3] = test: IL-1β-induced collagenase (MMP-1) production by dermal fibroblasts, ELISA; format: cell-based, human
Method: Confluent fibroblast monolayer cultures were treated for 2 hr with IL-1ra peptides and cultured for 48 h with hrIL-1β. Collagenase protein was measured in culture supernatants by ELISA.
(§1) Furthermore, the effect of the IL-1ra peptides on the stimulation of MMP-1 and TIMP expression was examined. Briefly, fibroblasts were seeded in wells of Flacon 3008 multiwell plates (5×10^4 cells/500 μl Maintenance Medium). After 72 h culture, the medium was removed from each well and replaced with Maintenance Medium (450 μl) containing 5% FCS and 25 μl of IL-1ra peptides or hrsIL-1ra peptide being tested. Two hrs later 25 μl IL-1β (100 pg/ml) was added to appropriate wells. Plates were incubated for 48 h, at which time medium was collected from each well. Levels of TIMP and collagenase produced by fibroblasts during culture were measured by specific ELISA techniques as previously described (Postlethwaite et al., 1988).

TIMP-1 = test: IL-1β-stimulated TIMP-1 production by fibroblasts, ELISA; format: cell-based, human
Method: TIMP-1 was measured in the same fibroblast culture supernatants as in FIG. 21.
as §1

collagenase (MMP-1) [4] = test: IL-1β-induced collagenase (MMP-1) production by dermal fibroblasts, ELISA; format: cell-based, human; conditions: same wells as collagenase assay
[5] = listed as 60-90 (SEQ ID NO: 15)

Substance: hrsIL-1ra: soluble human recombinant interleukin 1ra, used as control [reference compound]
- level to which IL-1-induced PGE2 production was inhibited (PGE2; 100 ng/ml): 150 pg/mL
- level to which IL-1β-induced ICAM-1 expression was inhibited (ICAM-1; 100 ng/mL): 6 O.D. units/mg of cellular protein
- Kd (type I IL-1R [1]): 0.15 nM
- displacement of [125I] IL-1 beta from EL4 cells (type I IL-1R [2]; 100× excess): greater than 90%

Substance: IHGGKMCLSCVKSGDETRLQLEAVNITDLSE (IL-1ra peptides representing the mature form of human sIL-1ra) [IL-1ra 60-90, synthetic peptide, residues 60-90 of IL-1ra]
- inhibition of IL-1-stimulated proliferation of D10.G4.1 T cells (D10.G4.1 T cells): did not block
- inhibition of IL-1-induced collagenase production by fibroblasts (collagenase (MMP-1) [3]): failed to block
- inhibition of IL-1β-induced TIMP-1 production by fibroblasts (TIMP-1): failed to block
- inhibition of IL-1-induced fibroblast PGE2 synthesis (PGE2; [5]): blocked
- inhibition of IL-1-induced fibroblast PGE2 synthesis (PGE2; listed as IL-1ra peptide 60-90): inhibited
- inhibition of IL-1-induced fibroblast PGE2 synthesis (PGE2; listed as SEQ ID NO: 15): inhibited
- inhibition of IL-1β-induced ICAM-1 expression on fibroblasts (ICAM-1; [5]): blocked
- inhibition of IL-1β-induced ICAM-1 expression on fibroblasts (ICAM-1; listed as IL-1ra peptide 60-90): inhibited
- inhibition of IL-1β-induced ICAM-1 expression on fibroblasts (ICAM-1; listed as SEQ ID NO: 15): inhibited the ICAM-1 expression on cultured fibroblasts in a dose dependent manner

Substance: RPSGRKSSKMQAFRIWDVNQKTFYLRNNQLVAGYL (IL-1ra peptides representing the mature form of human sIL-1ra) [IL-1ra 1-35, synthetic peptide, residues 1-35 of mature human sIL-1ra]
- concentrations at which IL-1 induced collagenase synthesis was inhibited (collagenase (MMP-1) [3]; dermal fibroblasts, FIG. 21): ≥ 10^−10 M
- inhibition of IL-1-induced collagenase production by fibroblasts (collagenase (MMP-1) [3]; listed as 1-35 (SEQ ID NO: 13)): blocked
- inhibition of IL-1-induced collagenase production by fibroblasts (collagenase (MMP-1) [3]; listed as IL-1ra peptide 1-35): inhibited
- fibroblast growth (counting trypsinized cells in hemocytometer) (collagenase (MMP-1) [4]): unchanged
- competition with / displacement of [125I] IL-1beta from type I IL-1Rs (type I IL-1R [2]; EL4 6.1 cells): did not competitively inhibit the binding
